Among the test systems are 786-0 renal; A498 renal; CAKI-1 renal; COLO 205 colon; EKVX NSCLC; HS 578T breast; LOX IMVI melanoma; MALME-3M melanoma; MCF7 breast; MDA-MB-435; MDA-N; NCI-H23 lung; NCI-H460 lung; NCI/ADR-RES ovarian; RXF 393 renal; SF-295 CNS; SK-MEL-5 melanoma; SK-OV-3 ovarian.
Assay in all cases: NCI-60 cell line screen, 48 h

The structures appear in SMILES notation.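 Cells were grown in 96-well plates and exposed to each compound for 48 hours at five concentrations; endpoints were interpolated linearly between bracketing concentrations, or set to the highest concentration if not reached. GI50 is the concentration that inhibits growth by half. TGI denotes the concentration required for complete inhibition of growth.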 Where a SMILES comes first, the peptide text is derived from it. The star is where a group is joined. Ethyl(2-NMe3+) = C[N+](C)(C)CC*; Boc = CC(C)(C)OC(=O)* Some results are limits rather than exact numbers.

For `CC(C)(C)c1ccc(-n2c3nc(=O)n(-c4ccccc4CO)c(=O)c-3cc3ccccc32)cc1`, the TGI in the test with 786-0 renal, in the test on A498 renal, in the test with CAKI-1 renal, in the test with COLO 205 colon, with EKVX NSCLC and in the test on HS 578T breast was more than 100 µM throughout. The TGI in the test on LOX IMVI melanoma was 37.9 µM; in the test with MALME-3M melanoma, more than 100 µM; in the test with MCF7 breast, more than 100 µM; with MDA-MB-435, 99.4 µM; in the test on MDA-N, 62.9 µM; with NCI-H23 lung, more than 100 µM. The TGI was more than 100 µM in the test on NCI-H460 lung; more than 100 µM in the test on NCI/ADR-RES ovarian; 55.2 µM in the test with RXF 393 renal; more than 100 µM in the test with SF-295 CNS; more than 100 µM with SK-MEL-5 melanoma.
Take `Cc1ccc2c(c1)CC1(Cc3c(C)cccc3C1=O)C2=O` (stereo not drawn): the TGI is more than 100 µM with 786-0 renal; more than 100 µM with A498 renal; more than 100 µM in the test with COLO 205 colon; more than 100 µM in the test with EKVX NSCLC; 87.4 µM in the test on HS 578T breast; more than 100 µM in the test on LOX IMVI melanoma. Moreover, the TGI in the test with MALME-3M melanoma, in the test on MCF7 breast, in the test on MDA-MB-435, in the test on MDA-N, in the test on NCI-H23 lung and in the test with NCI-H460 lung was more than 100 µM throughout. In addition, the TGI in the test with NCI/ADR-RES ovarian, with RXF 393 renal, in the test on SF-295 CNS, with SK-MEL-5 melanoma and in the test on SK-OV-3 ovarian was more than 100 µM throughout.
For the compound `CC(=O)c1cccc(Nc2nc3ccc(Cl)cc3c3[nH]c4ccccc4c23)c1`, the TGI with 786-0 renal is 11.3 µM; with A498 renal, 7.26 µM; with CAKI-1 renal, more than 36.7 µM; in the test with COLO 205 colon, 12.8 µM; in the test with EKVX NSCLC, 14.9 µM; with HS 578T breast, 66.4 µM. Besides, the TGI was more than 100 µM with LOX IMVI melanoma; more than 100 µM in the test with MALME-3M melanoma; more than 21.9 µM in the test on MCF7 breast; more than 100 µM in the test with MDA-MB-435; more than 100 µM in the test with MDA-N; more than 73.8 µM with NCI-H23 lung. In addition, the TGI came to 6.41 µM in the test on NCI-H460 lung; 79.5 µM in the test on NCI/ADR-RES ovarian; 11.1 µM in the test with SF-295 CNS; 17 µM in the test on SK-MEL-5 melanoma; 15.9 µM in the test with SK-OV-3 ovarian. Further, the GI50 in the test with A498 renal was 2.15 µM; in the test with LOX IMVI melanoma it was 5.46 µM.
For the compound `O=[N+]([O-])c1cc2c(c([N+](=O)[O-])c1)NCc1ccccc1O2`, the TGI in the test with 786-0 renal, in the test on A498 renal, in the test with CAKI-1 renal, in the test on COLO 205 colon, in the test with EKVX NSCLC and in the test with HS 578T breast was more than 100 µM throughout. The TGI in the test on LOX IMVI melanoma, in the test with MALME-3M melanoma, with MCF7 breast, in the test with MDA-MB-435, in the test on MDA-N and in the test on NCI-H23 lung was more than 100 µM each time. The TGI with NCI-H460 lung, in the test on NCI/ADR-RES ovarian, in the test on RXF 393 renal, with SF-295 CNS and in the test on SK-MEL-5 melanoma was more than 100 µM each time.
Consider `CC(NC(=O)C(Cc1ccc(OCC[N+](C)(C)C)cc1)NC(=O)OC(C)(C)C)C(=O)NC(Cc1ccccc1)C(=O)NCC(N)=O` (stereo not drawn) (Boc-Y(Ethyl(2-NMe3+))AFG-NH2; configuration not given here), for which the TGI in the test on 786-0 renal is 44.6 µM; with A498 renal, 33.3 µM; with CAKI-1 renal, more than 100 µM; with COLO 205 colon, more than 100 µM; in the test on HS 578T breast, 83 µM; in the test on LOX IMVI melanoma it was more than 100 µM. The TGI with MALME-3M melanoma was 69.7 µM; in the test on MCF7 breast it was more than 100 µM; in the test on MDA-MB-435 it was more than 100 µM; in the test with MDA-N, more than 100 µM; in the test on NCI-H23 lung, 31.8 µM; in the test on NCI-H460 lung, more than 100 µM. Further, the TGI in the test with NCI/ADR-RES ovarian was more than 100 µM; in the test on RXF 393 renal, 24 µM; in the test with SF-295 CNS, 17.4 µM; in the test with SK-MEL-5 melanoma, more than 100 µM; with SK-OV-3 ovarian it was 22.7 µM.
`OC1[C@H](O)CN(OCc2ccccc2)C[C@@H]1O` (stereo partly drawn): the TGI in the test on 786-0 renal, in the test with A498 renal, in the test with CAKI-1 renal, in the test on COLO 205 colon, with EKVX NSCLC and in the test with HS 578T breast was more than 100 µM in each case. Also, the TGI in the test with LOX IMVI melanoma, in the test on MALME-3M melanoma, with MCF7 breast, with MDA-MB-435, with MDA-N and with NCI-H23 lung was more than 100 µM each time. Also, the TGI with NCI-H460 lung, in the test on NCI/ADR-RES ovarian, in the test with RXF 393 renal, with SF-295 CNS and with SK-MEL-5 melanoma was more than 100 µM in each case.
`Oc1cc(-c2ccc(Cl)cc2)cn2c1nc1ccccc12`: the TGI in the test with 786-0 renal, in the test with A498 renal, in the test with CAKI-1 renal, in the test on COLO 205 colon, with EKVX NSCLC and in the test with HS 578T breast was more than 100 µM in each case. The TGI in the test with LOX IMVI melanoma, with MALME-3M melanoma, with MCF7 breast, with MDA-MB-435, in the test on MDA-N and in the test with NCI-H23 lung was more than 100 µM in each case. For the same compound, the TGI with NCI-H460 lung, in the test with NCI/ADR-RES ovarian, with RXF 393 renal, with SF-295 CNS and with SK-OV-3 ovarian was more than 100 µM in each case.
As for `Nc1[nH]c(=S)c2c(N)n[nH]c2c1C(=O)Nc1ccccc1`, the TGI with 786-0 renal, with A498 renal, in the test on CAKI-1 renal, in the test with COLO 205 colon, in the test on EKVX NSCLC and in the test on HS 578T breast was more than 100 µM throughout. Also, the TGI in the test on LOX IMVI melanoma, with MALME-3M melanoma, with MCF7 breast, in the test on MDA-MB-435, in the test with MDA-N and with NCI-H23 lung was more than 100 µM throughout. Also, the TGI in the test with NCI-H460 lung, in the test with NCI/ADR-RES ovarian, with RXF 393 renal, in the test on SK-MEL-5 melanoma and in the test with SK-OV-3 ovarian was more than 100 µM in each case.

The record behind these values is PubChem BioAssay (NCI).
